The results in this text go back to ChEMBL document CHEMBL1201862, “PubChem BioAssay data set” (2004).

Each structure is given as a SMILES string.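 The compound was tested at five concentrations on cells cultured in 96-well plates, with a 48-hour exposure period. Here, GI50 denotes the concentration required for 50% inhibition of growth.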 Active and inactive are the calls of the source. Cut-off read from the data, not from the text of the source: active = GI50 up to about 1.1 µM and inactive = higher.

Test systems include SF-539; OVCAR-8; SR; HOP-62; NCI-H23; DU-145; SNB-75; IGROV-1; EKVX; HOP-92; SF-268; SK-MEL-2; UACC-257; SK-OV-3; CCRF-CEM; HT-29; SW-620; OVCAR-3; HCT-15; Malme-3M.
What all share (assay): NCI anticancer screen, dose series, 48 h

Turning to `Cc1ccc(S(=O)(=O)Nc2cc(O)nc3c2CCC3)cc1`, the GI50 in the experiment with SF-539, in the experiment on OVCAR-8, with SR, in the experiment with HOP-62, in the experiment on NCI-H23 and in the experiment with DU-145 was > 100 µM (inactive) in each case. The GI50 in the experiment with SNB-75, in the experiment with IGROV-1, in the experiment on EKVX, in the experiment on HOP-92, in the experiment on SF-268 and in the experiment on SK-MEL-2 was > 100 µM (inactive) in each case. Moreover, the GI50 in the experiment with UACC-257, in the experiment with SK-OV-3, in the experiment with CCRF-CEM, in the experiment with HT-29, with SW-620 and with OVCAR-3 was > 100 µM (inactive) throughout. Further, the GI50 with HCT-15 is more than 100 µM; with Malme-3M, > 100 µM (inactive).
In the case of `CC(C)(C)c1cc(C2NC(=O)NC2=O)cc(C(C)(C)C)c1O` (configuration not stated), the GI50 with SF-539 was > 100 µM (inactive); in the experiment on OVCAR-8, 85.7 µM (inactive); in the experiment with SR, 28.8 µM (inactive); with HOP-62 it was > 100 µM (inactive); with NCI-H23 it was 56.8 µM (inactive); in the experiment on DU-145, > 100 µM (inactive). Besides, the GI50 in the experiment on SNB-75 is 29.4 µM (inactive); in the experiment on IGROV-1 it was > 100 µM (inactive); with EKVX, > 100 µM (inactive); in the experiment on HOP-92, 38.1 µM (inactive); in the experiment on SF-268, 64.6 µM (inactive); with SK-MEL-2, > 100 µM (inactive). The GI50 was > 100 µM (inactive) in the experiment with SK-OV-3; 26.1 µM (inactive) in the experiment with CCRF-CEM; 46.5 µM (inactive) with HT-29; 53.6 µM (inactive) in the experiment on SW-620; 34.1 µM (inactive) in the experiment on OVCAR-3; 93.3 µM in the experiment with HCT-15. In addition, the GI50 in the experiment on Malme-3M is 80 µM (inactive).
Consider `COc1cccc2c1C(=N)c1c(O)c3c(c(O)c1C2=O)C[C@@](O)(C(C)=O)C[C@@H]3OC1CC(N)C(O)C(C)O1` (some centres not stated), for which the GI50 was 0.00789 µM (active) with SF-539; 0.00466 µM (active) in the experiment with SR; 0.125 µM (active) in the experiment with HOP-62; 0.00875 µM (active) with NCI-H23; 0.00386 µM (active) in the experiment on DU-145; 0.00764 µM (active) in the experiment on SNB-75. The GI50 with IGROV-1 was 1.38 µM (inactive); in the experiment with EKVX, 1.42 µM (inactive); in the experiment with HOP-92 it was 0.655 µM (active); with SF-268 it was 0.00938 µM (active); with SK-MEL-2, 1.48 µM (inactive); in the experiment with SK-OV-3 it was 0.43 µM (active). For the same compound, the GI50 in the experiment with CCRF-CEM was 0.0001 µM (active); in the experiment on HT-29, 0.4 µM (active); in the experiment on SW-620, 0.199 µM (active); in the experiment with HCT-15, 3.27 µM; in the experiment with Malme-3M, 0.000721 µM (active).
Regarding `N=C(N)NS(=O)(=O)c1ccc(NNc2c3ccccc3nc3c(C(=O)Nc4ccc(S(=O)(=O)Nc5ncccn5)cc4)cccc23)cc1`, the GI50 in the experiment on SF-539 was 35.4 µM (inactive); in the experiment with OVCAR-8 it was 29.4 µM (inactive); in the experiment on SR it was > 10 µM (inactive); with HOP-62, 45.3 µM (inactive); in the experiment on NCI-H23, 35.3 µM (inactive); with DU-145, 60.1 µM (inactive). Moreover, the GI50 with SNB-75 is > 100 µM (inactive); in the experiment with IGROV-1, 18.2 µM (inactive); with EKVX it was 31.8 µM (inactive); in the experiment on HOP-92, 67 µM (inactive); in the experiment on SF-268, 47.2 µM (inactive); with SK-MEL-2, 50.4 µM (inactive). Further, the GI50 with UACC-257 was 66.7 µM (inactive); in the experiment on CCRF-CEM, 30.8 µM (inactive); in the experiment on HT-29, 22.9 µM (inactive); in the experiment on SW-620, 37.5 µM (inactive); in the experiment with OVCAR-3, 38.4 µM (inactive); with HCT-15, 34.1 µM. The GI50 in the experiment with Malme-3M was 22.1 µM (inactive).
Take `COc1cc(C2c3cc4c(cc3OC(N3CCOCC3)C2C)OCO4)ccc1O` (configuration not stated): the GI50 in the experiment on SF-539 is 11.3 µM (inactive); in the experiment with OVCAR-8, 26.9 µM (inactive); in the experiment with SR it was 5.66 µM (inactive); with HOP-62, 11.7 µM (inactive); with NCI-H23 it was 28.6 µM (inactive); in the experiment with DU-145 it was 28.7 µM (inactive). Also, the GI50 in the experiment with SNB-75 was 7.64 µM (inactive); with IGROV-1, 16.4 µM (inactive); in the experiment with EKVX it was 36.1 µM (inactive); in the experiment with HOP-92 it was 2.84 µM (inactive); with SF-268, 35.2 µM (inactive); with SK-MEL-2, 6.24 µM (inactive). For the same compound, the GI50 in the experiment on UACC-257 was 40.7 µM (inactive); in the experiment with CCRF-CEM, 8.67 µM (inactive); in the experiment on HT-29, 23.4 µM (inactive); with SW-620, 6.3 µM (inactive); with OVCAR-3 it was 7.62 µM (inactive); with HCT-15, 4.98 µM. Also, the GI50 with Malme-3M was 10.9 µM (inactive).
On to `COc1ccc2c(c1)[n+]([O-])c1cc(C#N)ccc1[n+]2[O-]`, for which the GI50 is 3.41 µM (inactive) in the experiment with SF-539; 15.4 µM (inactive) in the experiment on OVCAR-8; 4.08 µM (inactive) in the experiment with SR; 2.11 µM (inactive) with HOP-62; 0.849 µM (active) in the experiment with NCI-H23; 1.1 µM (active) in the experiment on DU-145. Moreover, the GI50 in the experiment with SNB-75 is 4.41 µM (inactive); with IGROV-1, 4.88 µM (inactive); in the experiment with EKVX, 24 µM (inactive); in the experiment on HOP-92, 6.56 µM (inactive); in the experiment with SF-268 it was 13.3 µM (inactive); in the experiment with SK-MEL-2, 4.27 µM (inactive). Besides, the GI50 in the experiment on UACC-257 was 3.74 µM (inactive); in the experiment with SK-OV-3 it was 18.5 µM (inactive); in the experiment on HT-29 it was 2.87 µM (inactive); in the experiment on SW-620, 4.34 µM (inactive); in the experiment on OVCAR-3 it was 5.83 µM (inactive); in the experiment with HCT-15, 0.723 µM. The GI50 in the experiment on Malme-3M is 2.58 µM (inactive).
Consider `N#Cc1ccc(OCc2ccc3nc(-c4ccccc4)c(Cl)nc3c2)cc1`, for which the GI50 with SF-539 was > 100 µM (inactive); in the experiment on OVCAR-8 it was > 100 µM (inactive); in the experiment on SR, > 100 µM (inactive); with HOP-62, 42.7 µM (inactive); in the experiment on NCI-H23 it was > 100 µM (inactive); in the experiment on DU-145, > 100 µM (inactive). Besides, the GI50 in the experiment with SNB-75, in the experiment on IGROV-1, in the experiment on EKVX, in the experiment with HOP-92, with SF-268 and in the experiment on SK-MEL-2 was > 100 µM (inactive) each time. In addition, the GI50 in the experiment on UACC-257 is > 100 µM (inactive); in the experiment with CCRF-CEM, > 100 µM (inactive); with HT-29, > 100 µM (inactive); in the experiment on SW-620, > 100 µM (inactive); with OVCAR-3 it was > 100 µM (inactive); with HCT-15, more than 100 µM. In addition, the GI50 in the experiment on Malme-3M is > 100 µM (inactive).
Consider `COc1cc2ccccc2oc1=O`, for which the GI50 was > 100 µM (inactive) in the experiment with SF-539; > 100 µM (inactive) in the experiment on OVCAR-8; > 100 µM (inactive) with SR; 59.8 µM (inactive) in the experiment with HOP-62; 94.2 µM (inactive) with NCI-H23; > 100 µM (inactive) in the experiment on DU-145. The GI50 was 57.3 µM (inactive) in the experiment with SNB-75; > 100 µM (inactive) with IGROV-1; 51.1 µM (inactive) in the experiment with EKVX; 40 µM (inactive) in the experiment with HOP-92; 51.6 µM (inactive) in the experiment with SF-268; 23.3 µM (inactive) in the experiment with SK-MEL-2. The GI50 in the experiment with UACC-257 is > 100 µM (inactive); in the experiment on CCRF-CEM, 41.9 µM (inactive); with HT-29 it was > 100 µM (inactive); in the experiment on SW-620, > 100 µM (inactive); with OVCAR-3 it was 74.5 µM (inactive); in the experiment on HCT-15, more than 100 µM. For the same compound, the GI50 in the experiment with Malme-3M is 99.1 µM (inactive).
Regarding `CCN(CC)CCCC(C)Nc1ccnc2cc3ccccc3cc12` (configuration not stated), the GI50 with SF-539 was 22.8 µM (inactive); in the experiment on OVCAR-8, 7.23 µM (inactive); in the experiment with SR, 3.75 µM (inactive); with HOP-62 it was 12.4 µM (inactive); in the experiment with NCI-H23, 14.3 µM (inactive); in the experiment with DU-145, > 100 µM (inactive). Also, the GI50 with SNB-75 is 6.95 µM (inactive); in the experiment on IGROV-1, 4.43 µM (inactive); in the experiment with EKVX, 32.2 µM (inactive); with HOP-92, 12.3 µM (inactive); with SF-268, 4.86 µM (inactive); with SK-MEL-2, 23.9 µM (inactive). For the same compound, the GI50 in the experiment with UACC-257 was 23.8 µM (inactive); with SK-OV-3 it was 8.05 µM (inactive); in the experiment on CCRF-CEM, > 100 µM (inactive); in the experiment on SW-620 it was 6.19 µM (inactive); with OVCAR-3, 6.05 µM (inactive); in the experiment on HCT-15 it was 3.23 µM. In addition, the GI50 with Malme-3M was 19.7 µM (inactive).
In the case of `C=C(Cl)C(C)(Cl)CCC(Cl)C(C)(C)Cl` (configuration not stated), the GI50 in the experiment on SF-539 was > 100 µM (inactive); in the experiment with SR it was 23.8 µM (inactive); in the experiment on HOP-62, > 100 µM (inactive); with NCI-H23 it was 83.2 µM (inactive); with DU-145, > 100 µM (inactive); with SNB-75, 41.9 µM (inactive). Besides, the GI50 in the experiment with IGROV-1 was 47.5 µM (inactive); with EKVX it was > 100 µM (inactive); in the experiment on HOP-92 it was 25.9 µM (inactive); with SF-268, 89.9 µM (inactive); with SK-MEL-2, 27.2 µM (inactive); in the experiment on UACC-257, 29.4 µM (inactive). Also, the GI50 was > 100 µM (inactive) in the experiment on SK-OV-3; 30.3 µM (inactive) in the experiment on CCRF-CEM; 43.7 µM (inactive) in the experiment with HT-29; 51.6 µM (inactive) in the experiment on SW-620; 46 µM (inactive) with OVCAR-3; 38.2 µM (inactive) with Malme-3M.
`COc1cccc(/C=C\c2ccc(O)cc2)c1`: the GI50 in the experiment with SF-539 was 13.7 µM (inactive); in the experiment with OVCAR-8, 12.3 µM (inactive); in the experiment with SR, 2.72 µM (inactive); in the experiment on HOP-62, 34.6 µM (inactive); in the experiment on NCI-H23 it was 15.1 µM (inactive); with DU-145 it was 13.1 µM (inactive). Further, the GI50 in the experiment with SNB-75 is 24 µM (inactive); with IGROV-1, 26.7 µM (inactive); in the experiment on EKVX it was 30.2 µM (inactive); with HOP-92 it was 18.2 µM (inactive); in the experiment on SF-268, 28.2 µM (inactive); in the experiment on SK-MEL-2 it was 25.8 µM (inactive). Further, the GI50 is 26.7 µM (inactive) in the experiment on UACC-257; 36.5 µM (inactive) with SK-OV-3; 21.3 µM (inactive) in the experiment with HT-29; 15.2 µM (inactive) in the experiment with SW-620; 16.8 µM (inactive) with OVCAR-3; 23.7 µM with HCT-15. Besides, in the experiment with Malme-3M, the GI50 is 20.2 µM (inactive).
